The supplement of paper PMC5770543
± gives the standard deviation.

Experiments:
[1] = system: Plasmodium falciparum 3D7; test: EC50 growth inhibition (60 h, SYBR Green); conditions: stage: ring-stage start
[2] = system: Toxoplasma gondii RH tachyzoites; test: % growth inhibition vs DMSO (48 h luciferase); higher = more inhibition; conditions: 10 µM
[3] = system: Plasmodium falciparum 3D7; test: % inhibition of schizont-to-ring transition vs DMSO; higher = more inhibition
How it was run: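 Schizont-to-ring transition inhibition is the formation of new rings relative to vehicle controls. Tightly synchronised P. falciparum schizonts at about 40–42 hours post-invasion (1% parasitemia, 2.5% hematocrit, AlbuMAX-supplemented RPMI) were treated with compound at 1, 3 or 10 µM, alongside vehicle and positive controls. After glutaraldehyde fixation, Triton permeabilisation and Hoechst 33342 staining, at least 100,000 events were counted by flow cytometry, and values are the mean of three experiments.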

[4] = system: Toxoplasma gondii RH tachyzoites; test: plaque count per well; higher = less inhibition; extreme values may be limits of the assay; conditions: 10 µM; 8-10 days
Protocol: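 T. gondii RH tachyzoites expressing firefly luciferase were grown in HFF monolayers for 48 h with compound. % growth inhibition at 10 µM and EC50 (2-fold dilutions from 10 µM) were read by luminescence relative to 1% DMSO; EC50 listed as 10 (not determined, <80% inhibition) is left out. Plaque assays: 50 tachyzoites per well with 10 µM compound for 8-10 days, giving plaque count and area by crystal violet/ImageJ. Egress: median time to egress after 1 µM A23187 ionophore following 24 h of 10 µM compound (DMSO ~1.8 min; >10 = no egress within 10 min).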
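Wherever % growth inhibition vs DMSO (48 h luciferase) is given: tested in triplicate wells of 96-well plates on confluent HFF monolayers, with 1% DMSO wells as negative control in four replicates.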

| SMILES | EC50 growth inhibition [1] [nM] | % growth inhibition [2] [%] | % inhibition of schizont-to-ring transition ([3]; 1 µM) [%] | % inhibition of schizont-to-ring transition ([3]; 3 µM) [%] | % inhibition of schizont-to-ring transition ([3]; 10 µM) [%] | plaque count per well [4] |
| --- | --- | --- | --- | --- | --- | --- |
| Cc1cc(N2CCN(C3CCCC3)CC2)n2c(nc3ccccc32)c1C#N | 878 | < 0 | 33.3 | 39.3 | 51.3 | 30 |
| CCOc1ccc(N2C(N)=NC(N)=NC2(C)C)cc1 | 9760 | < 0 | 5.22 | 7.7 | 16 | 28 |
| Cc1ccc(F)cc1NC(=O)c1cc(Cl)ccc1Nc1ccccc1 | 1790 | < 0 | 54.4 | 70.7 | 81.9 | 26 |
| COc1ccc(Br)cc1C1Nc2ccc3ccccc3c2C2=C1C(=O)CC(c1ccccc1)C2 (stereo unspecified) | 387 | 12.1 ± 11 | < 0 | 4.06 | 29.3 | 0 |
| CCCc1cc(O)c2c3c(c(=O)oc2c1)CN(C)CC3 | 364 | < 0 | 25.2 | 60.2 | 68 | 33 |
| O=C(Nc1ccc(Cl)cc1)N1CCN(c2ccc3nncn3n2)CC1 | 6370 | < 0 | 13.1 | 24.8 | 54.3 | 22 |
| COc1ccccc1CNC(=O)C1c2ccccc2C(=O)N(CC(C)C)C1c1cccs1 (stereo unspecified) | 926 | < 0 | 34.5 | 45 | 68.1 | 24 |
| O=C(Nc1ccc(CN2CCOCC2)cc1)c1ccc(-c2ccc(Br)cc2)o1 | 1420 | 8.26 ± 14 | 40.3 | 45.9 | 59.2 | 30 |
| CCOc1cc2c(cc1OCC)C(c1cc(C)c(O)c(C)c1)NCC2 (stereo unspecified) | 792 | 14.9 ± 14 | 6.53 | 17.1 | 43.5 | 31 |
| CCCCc1c(C)nc2c(OC)cccc2c1O | 2640 | 9.6 ± 15 | 41.9 | 45.3 | 49.4 | 0 |
| CC(C)c1ccc(CNCC(O)c2ccccc2)cc1 (stereo unspecified) | 2650 | 10.5 ± 1.3 | 7.33 | 20.6 | 59.6 | 0 |
| COc1ccc(CNC2CCN(c3ccc(NC(=O)c4cccc(Cl)c4)cc3)CC2)cc1OC | 492 | 3.03 ± 5.2 | < 0 | 28.3 | 38.6 | 0 |
| CCOC(=O)C1CCN(C(=O)CN2C(=O)c3ccccc3C2c2c[nH]c3ccccc23)CC1 (stereo unspecified) | 971 | < 0 | 15.7 | 32.3 | 65.4 | 31 |
| Cc1cc(=O)oc2c1ccc1oc(C(=O)c3ccccc3)c(C)c12 | 1870 | < 0 | 10.7 | 25.9 | 45.3 | 28 |
| COc1ccccc1CNC(=O)CCn1c(=O)[nH]c2ccsc2c1=O | 6070 | < 0 | 11.4 | 30.6 | 49.9 | 22 |
| CCOC(=O)C1(Cc2ccccc2)CCN(Cc2cccc(OC)c2O)CC1 | 1330 | 1.84 ± 3.2 | 25.8 | 34 | 55.9 | 0 |
| COc1ccc(-c2nonc2NC(=O)c2cccc(C)c2)cc1OC | 628 | 3.28 ± 4.1 | 32.8 | 59 | 67.1 | 28 |
| Cc1cc(C)c2nc(N3CCC(C(=O)NCCCN4CCC(N5CCCCC5)CC4)CC3)sc2c1 | 1080 | < 0 | 18.8 | 46.7 | 59.8 | 16 |
| CCn1c(SCC(=O)Nc2cc(C(F)(F)F)ccc2Cl)nc2ccccc2c1=O | 6480 | < 0 | 22.9 | 30.1 | 43.7 | 26 |
| CCc1ccc(Nc2cc(C)nc3nc(C)nn23)cc1 | 2280 | < 0 | 7.01 | 30 | 50.7 | 27 |
| CC1=C(CC(=O)c2cccc([N+](=O)[O-])c2)C(=O)c2ccccc2C1=O | 9850 | < 0 | 32.3 | 55.7 | 59.9 | 0 |
| CCCN(CCC)CC(O)COc1ccccc1C(=O)Nc1ccccc1 (stereo unspecified) | 420 | < 0 | 33 | 65.6 | 73.5 | 25 |
| CCCCc1c(CCC)c(=N)c2ccccc2n1C | 3930 | < 0 | 7.81 | 11.2 | 39.6 | 23 |
| CCN1CCN(Cc2ccc(NC(=O)c3cc4ccc5cccnc5c4[nH]3)cc2)CC1 | 161 | < 0 | 36.2 | 49.2 | 55.2 | 31 |
| COc1ccc2c(c1OC)C(=O)N1c3ccccc3N=C(c3ccc(C)cc3)CC21 (stereo unspecified) | 6080 | < 0 | 20.9 | 71.5 | 80.7 | 32 |
| COc1ccc(C(=O)Nc2nonc2-c2ccc(OC)c(OC)c2)cc1Cl | 420 | 1.09 ± 1.9 | 35.7 | 67.3 | 69.4 | 20 |
